Measured values taken from patent publication US10933147B2, “Imaging of metastatic or recurrent cancer” (Blue Earth Diagnostics Limited, priority 2015, dated 2021).

Tests used:
[1] = human, in vivo
Description: FIGS. 1a and 1b show accumulation of FACBC in the Virchow's node when the FACBC is injected into the left arm.
In some embodiments, the right arm may be preferred as stasis in the axillary vein upon injection in the left arm may be misinterpreted as a metastatic lymph node called Virchow's node, which is located in the left supraclavicular fossa (the area above the left clavicle, or collar bone). For example, FIGS. 1a and 1b show accumulation of FACBC in the Virchow's node when the FACBC is injected into the left arm.

[2] = test system: known prostate carcinoma recurrence; test: PET time activity curves in prostate carcinoma recurrence; format: in vivo, human
Description: (§1) Regions in marrow (ilium), muscle (gluteus), and bladder reached a plateau at 4.5 minutes that remained constant throughout the imaging period.
(§2) The time required for [^18F]-FACBC to accumulate in tumour cells in steps a) and c) of the aspects described above may be about 5 minutes or less after [^18F]-FACBC is administered. Optionally, the time taken for [^18F]-FACBC to accumulate is 3 to 5 minutes, for example 4 minutes. This therefore allows image acquisition to start 3 to 5 minutes after administration, for example 4 minutes after [^18F]-FACBC administration. […] Regions in marrow (ilium), muscle (gluteus), and bladder reached a plateau at 4.5 minutes that remained constant throughout the imaging period.

[3] = PET time activity curves in reference regions; format: in vivo, human; conditions: regions in marrow (ilium), muscle (gluteus), and bladder; remained constant throughout the imaging period
Description: as §1, §2

## N[C@]1(C(=O)O)C[C@@H](F)C1 [fluciclovine, anti-1-amino-3-^18F-fluorocyclobutane-1-carboxylic acid]
[1]
  standardized uptake value (SUV): > 200
[2]; known prostate carcinoma recurrence, after the maximum
  plateau of uptake lasts to: 30 min
[2]; known prostate carcinoma recurrence, after the plateau, out to 60 minutes
  gradual clearance: 9 %/min
[2]; rapid uptake in known prostate carcinoma recurrence
  time of maximum uptake: 4.5 min
[3]
  time at which plateau is reached: 4.5 min
